The subject of this series is nude BALB/c mice bearing subcutaneous PC-3 tumors. In words: Biodistribution of DiR-loaded mixed micelles, whole body live imaging. Conditions: tail-vein injection. It is filed as in vivo. An excerpt: To test the biodistribution of the micelles of the invention, DiR, a near-infrared fluorophore, was encapsulated in MM5D micelles and administered through tail-vein intravenous injection to nude BALB/c mice bearing subcutaneous PC-3 tumors. The in vivo real-time biodistribution of the fluorophore was studied by whole body live imaging at various time points over seven days. An equivalent amount of free DiR was similarly administered to a control group of mice.
The loading of DiR in MM5D micelles was carried out according to the DOX-loading protocol described above. Briefly, polymer (10 mg) and DiR (0.3 mg) were dissolved in DMSO (2 mL) and the mixture pipetted drop-by-drop into 10 mL of deionized water, with sonification for 10 minutes. The solution was dialyzed against deionized water for 48 hours, with the water changed at 3-, 6-, and 24-hours.
PC-3 cells (5 □ 106) suspended in Matrigel (1:1 ratio) were injected subcutaneously (200 μL) into the right flank of male BALB/c mice. Five weeks post-injection, when the tumor reached 5-7 mm in diameter, mice were treated with 8 mg/kg DiR-loaded mixed micelles via tail-vein injection or an equivalent amount of free DiR.
Whole-body fluorescence images were taken using Xenogen IVIS 100 with an ICG filter (excitation 710-760 nm, emission at 810-875 nm) at time points ranging from 30 minutes to 7-days post-administration. Anesthetized animals (n=3 for micelle formulation and n=2 for free DiR) were placed ion one lateral position on a heated plate (37° C.) for image acquisition with an exposure time set to 2 seconds. Tumors and organs were removed from sacrificed mice after 7-days post-administration and then imaged.

The mark [1] stands for this setting: organs removed 7-days post-administration.

As for `CCCCCCCCCCCCCCCCCCN1/C(=C/C=C/C=C/C=C/C2=[N+](CCCCCCCCCCCCCCCCCC)c3ccccc3C2(C)C)C(C)(C)c2ccccc21.[I-]` [free DiR], under “8 mg/kg or equivalent free DiR”, the “DiR signal in the subcutaneous tumor at 48-hours post-injection” value is on record as “Little or no signal” and the “Distribution of DiR fluorescence signal at 24-hours” value was “concentrated strongly in the liver”. Further, under setting [1], the “DiR signal in the tumor (FIG. 9, tumors and organs)” value is reported as “little or no signal in the tumor”; the “Tissues with strongest DiR signal (FIG. 9, tumors and organs)” value was “strongest signal in the lungs, liver, and spleen”.

The record behind these values is US10376468B2, “Block copolymers and self-assembling nanoparticles formed therefrom” (International Business Machines Corporation, priority 2017, dated 2019).
